Test results from BigSolDB 2.1.

C1CNCCNCCNCCN1
solubility (mole fraction)
Settings	298.15 K	303.15 K	308.15 K	313.15 K	318.15 K	323.15 K
in isopropanol	0.00193	0.00202	0.00213	0.00224	0.0023	0.00249
in methanol	0.00266	0.00268	0.00305	0.00318	0.00321	0.00328
